From EP4371556B1, “ANGIOTENSIN(1-7) PHARMACEUTICAL COMPOSITIONS FOR INHALATION” (Explicat Pharma GmbH, priority 2022, dated 2026)

Assay: Phase solubility analysis (Higuchi-Connors plot) with HPβCD
Format: physicochemical
Details: different concentrations of HPβCD in isotonic saline solutions
Description: In an attempt to solubilize the peptide, the effect of cyclodextrins was investigated. In particular, HPβCD, a cyclodextrin presented as preferable in most of the literature described above and used in composition for inhalation by Magalhães et al., was selected for testing. […] The skilled person is familiar with Higuchi-Connors plots and how to obtain them, as described, e.g., in Higuchi T. and Connors, Advances in Analytical Chemistry and Instrumentation, 1965, 177-212.

## CC[C@H](C)[C@H](NC(=O)[C@H](Cc1ccc(O)cc1)NC(=O)[C@@H](NC(=O)[C@H](CCCNC(=N)N)NC(=O)[C@@H](N)CC(=O)O)C(C)C)C(=O)N[C@@H](Cc1c[nH]cn1)C(=O)N1CCC[C@H]1C(=O)O [AT1-7, Asp-Arg-Val-Tyr-Ile-His-Pro]
  solubilising effect of HPβCD on AT1-7: substantially no solubilising effect
